Data set [1] is described as follows: Selectivity index, ratio of IC50 for rat L6 cells to IC50 for axenic amastigote form of Leishmania donovani strain MHOM-ET-67/L82. It is filed as toxicity, cell-based. As to conditions: read-out: Ratio IC50.
Data set [2] in a line: Selectivity index, ratio of IC50 for rat L6 cells to IC50 for promastigote form of Leishmania donovani strain MHOM/SD/00/1S-2D. It is filed as toxicity, cell-based. As to conditions: read-out: Ratio IC50.
A short description of data set [3]: Selectivity index, ratio of IC50 for rat L6 cells to IC50 for intracellular amastigote form of Trypanosoma cruzi Tulahuen strain C2C4. It is filed as toxicity, cell-based. To be noted: read-out: Ratio IC50.
Data set [4] is described as follows: Selectivity index, ratio of IC50 for rat L6 cells to IC50 for trypomastigote form of Trypanosoma brucei rhodesiense strain STIB 900. Type of data set: toxicity, cell-based. As to conditions: read-out: Ratio IC50.
For data set [5], the system named is Leishmania donovani. The experiment in a line: Antitrypanosomal activity against promastigote form of Leishmania donovani MHOM/SD/00/1S-2D assessed as growth inhibition after 72 hrs by inverted microscopy. Type of data set: functional, organism-based.
The subject of a further data set is Trypanosoma cruzi. The data set is described as follows: Antitrypanosomal activity against intracellular amastigote form of Trypanosoma cruzi Tulahuen C2C4 infected in rat L6 cells assessed as growth inhibition after 92 hrs by inverted microscopy. Type of data set: functional, organism-based. As to conditions: Tulahuen C2C4, L6, 92 h.
Data set [6] addresses Trypanothione reductase (Trypanosoma brucei brucei) (UniProt P39051). The data set is described as follows: Inhibition of Trypanosoma brucei TR using 40 to 100 uM trypanothione disulfide assessed as remaining activity at 5 uM.
Data set [7] has the same target. The data set is described as follows: Induction of intrinsic oxidase activity of Trypanosoma brucei TR at 5 uM.
The next data set deals with L6. The experiment in a line: Cytotoxicity against rat L6 cells assessed as growth inhibition after 72 hrs by inverted microscopy. Type of data set: cell-based. As to conditions: L6, 72 h.
In data set [8] the test system is Leishmania donovani. The data set is described as follows: Antitrypanosomal activity against axenic amastigote form of Leishmania donovani MHOM-ET-67/L82 assessed as growth inhibition after 72 hrs by inverted microscopy. Type of data set: functional, organism-based. As to conditions: MHOM-ET-67/L82, 72 h.
The test system of data set [9] is Trypanosoma brucei rhodesiense. The experiment in a line: Antitrypanosomal activity against trypomastigote form of Trypanosoma brucei rhodesiense STIB 900 assessed as growth inhibition after 72 hrs by microplate fluorometry. To be noted: STIB 900, 72 h. Type of data set: functional, organism-based.
Data set [10] addresses T1, Trypanothione reductase (Trypanosoma brucei brucei, UniProt P39051). The experiment in a line: Mixed type inhibition of Trypanosoma brucei TR using varying levels of trypanothione disulfide assessed as inhibition constant for enzyme-substrate-inhibitor complex by Lineweaver-Burk plot.
For data set [11], the target named is T1, Trypanothione reductase. The experiment in a line: Mixed type inhibition of Trypanosoma brucei TR using varying levels of trypanothione disulfide assessed as inhibition constant for enzyme-inhibitor complex by Lineweaver-Burk plot.
Data set [12] concerns the target T1, Trypanothione reductase. The data set is described as follows: Noncompetitive inhibition of Trypanosoma brucei TR using varying levels of trypanothione disulfide by Lineweaver-Burk plot.
Data set [13] concerns Leishmania donovani. The data set is described as follows: Induction of morphological damage in promastigote form of Leishmania donovani MHOM/ET/67/L82 assessed as accumulation of vesicular material inside the flagellar pocket at 5 uM after 4 hrs by transmission electron microscopy. Type of data set: functional, organism-based.
For data set [14], the system named is Leishmania donovani. The data set is described as follows: Reduction in free cytoplasmic ATP level in promastigote form of Leishmania donovani 3-Luc at 2.5 to 25 uM after 15 to 20 mins by luminescence assay. It is filed as functional, organism-based.
For data set [15], the system named is Leishmania donovani. The experiment in a line: Reduction in mitochondrial electrochemical potential in promastigote form of Leishmania donovani MHOM/ET/67/L82 assessed as reduction in Rhodamine 123 fluorescence at 25 uM after 4 hrs by flow cytometry. It is filed as functional, organism-based. (In general: A flow cytometer gives signals particle by particle.)

Data set [16] deals with Leishmania donovani. The data set is described as follows: Induction of morphological damage in promastigote form of Leishmania donovani MHOM/ET/67/L82 assessed as mitochondrial swelling at 5 uM after 4 hrs by transmission electron microscopy. It is filed as functional, organism-based.

Active and inactive are the calls of the source. The rule behind the calls is not given here.

T1 sequence (P39051 whole entry): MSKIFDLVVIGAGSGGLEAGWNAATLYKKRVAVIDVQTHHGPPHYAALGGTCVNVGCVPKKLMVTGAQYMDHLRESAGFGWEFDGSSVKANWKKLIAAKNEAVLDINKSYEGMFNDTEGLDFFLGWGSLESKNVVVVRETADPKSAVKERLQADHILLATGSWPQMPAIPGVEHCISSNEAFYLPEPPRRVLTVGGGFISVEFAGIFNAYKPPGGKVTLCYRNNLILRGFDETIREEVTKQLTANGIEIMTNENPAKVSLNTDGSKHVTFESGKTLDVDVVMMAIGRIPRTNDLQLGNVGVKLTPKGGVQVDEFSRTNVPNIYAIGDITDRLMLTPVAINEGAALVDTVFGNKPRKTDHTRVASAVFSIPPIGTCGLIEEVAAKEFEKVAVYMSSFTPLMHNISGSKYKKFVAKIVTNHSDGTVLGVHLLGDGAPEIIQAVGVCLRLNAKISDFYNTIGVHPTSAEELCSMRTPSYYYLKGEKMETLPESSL
Trypanothione reductase (Trypanosoma brucei brucei), sequence (P39051 whole entry, looked up): as the sequence (P39051 whole entry) above

The term IC50 denotes the concentration that inhibits the measured activity by half. Take `O=C1C=C(Oc2ccccc2)C(=O)c2ccccc21`: the selectivity ratio came to 4.7 in [1], 8 in data set [2], 4.7 in [3] and 74 in data set [4]. Besides, the IC50 in the data set on Leishmania donovani [5] stood at 0.74 µM; in the data set on Trypanosoma cruzi it was 1.26 µM. Moreover, the Activity in data set [6] is 51%.

As to `NCCCNCCCCNCCCNCc1ccc(OC2=CC(=O)c3ccccc3C2=O)cc1`, in [7], the outcome was Active. For the same compound, the selectivity ratio in [1] is 1.22; in data set [2], less than 0.23; in [3], 0.29; in data set [4] it was 15.7. For the same compound, the IC50 in the data set on L6 is 7.05 µM; in the data set on Leishmania donovani [5] it was more than 30 µM; in the data set with Leishmania donovani [8], 5.79 µM; in the data set with Trypanosoma cruzi, 24.1 µM; in data set [9], 0.45 µM. The Activity in [6] is 36%.

For the compound `Nc1nc(N)nc(Nc2ccc([As]3SCC(CO)S3)cc2)n1` (stereo unspecified) [MELARSOPROL], in [4], the selectivity ratio was determined as 1830. In addition, in the data set on L6, the 50% inhibitory concentration (IC50) worked out at 18.3 µM.

As usually defined, the Ki is the equilibrium dissociation constant of an inhibitor or competing ligand from its target. For the compound `NCCCCCNCc1ccc(OC2=CC(=O)c3cc4ccccc4cc3C2=O)cc1`, the values for the inhibition constant (Ki) on Trypanothione reductase [10], at Trypanothione reductase [11] and on Trypanothione reductase [12] were 3.9 µM, 3.4 µM and 3.4 µM, respectively. In addition, the result with Leishmania donovani [13] and with Leishmania donovani [15] was Active. The Activity result with Leishmania donovani [14] was “Dose-dependent effect”; in data set [6], 36%. Besides, the result in data set [7] was inactive. In addition, the selectivity ratio in [1] came out at 2.06; in [2], 1.39; in data set [3], 0.29; in data set [4], 72. In addition, the IC50 amounted to 5.04 µM in the data set with L6; 3.62 µM in the data set on Leishmania donovani [5]; 2.44 µM with Leishmania donovani [8]; 17.4 µM in the data set with Trypanosoma cruzi; 0.07 µM in data set [9].

On to `CCCCCCCCCCCCCCCCOP(=O)([O-])OCC[N+](C)(C)C` [MILTEFOSINE], for which the selectivity ratio in data set [1] came out at 462. In addition, the IC50 in the data set on L6 was 143 µM.

Turning to `NCCCNCCCNCCCNCc1ccc(OC2=CC(=O)c3ccccc3C2=O)cc1`, the selectivity ratio in data set [1] is 0.89; in [2] it was less than 0.21; in [3] it was 0.34; in data set [4], 14. Further, the IC50 in the data set on L6 is 6.46 µM; in the data set with Leishmania donovani [5] it was more than 30 µM; with Leishmania donovani [8] it was 7.27 µM; with Trypanosoma cruzi, 18.8 µM; in data set [9], 0.46 µM.

`COc1cc([C@@H]2c3cc4c(cc3[C@H](O)[C@H]3COC(=O)[C@H]23)OCO4)cc(OC)c1OC` [PODOFILOX]: in the data set with L6, the 50% inhibitory concentration (IC50) is 0.0017 µM.

Regarding `NCCCNCCCCNCCCNCc1ccc(OC2=CC(=O)c3cc4ccccc4cc3C2=O)cc1`, the selectivity ratio in data set [1] was 2.15; in data set [2], 0.45; in data set [3], 0.21; in [4], 22.5. Also, the concentration for half-maximal inhibition (IC50) with L6 was determined as 7.21 µM; in the data set on Leishmania donovani [5], 16.1 µM; in the data set with Leishmania donovani [8], 3.35 µM; in the data set with Trypanosoma cruzi, 34.8 µM; in data set [9], 0.32 µM.

In the case of `NCCCNCCCCNCc1ccc(OC2=CC(=O)c3ccccc3C2=O)cc1`, the selectivity ratio was 1.28 in data set [1], less than 0.31 in [2], 0.18 in data set [3] and 12.8 in data set [4]. The half-inhibitory concentration (IC50) was 9.18 µM with L6; more than 30 µM in the data set on Leishmania donovani [5]; 7.17 µM in the data set on Leishmania donovani [8]; 52.2 µM with Trypanosoma cruzi; 0.72 µM in data set [9].

For `NCCCCCNCc1ccc(OC2=CC(=O)c3ccccc3C2=O)cc1`, the inhibition constant (Ki) on Trypanothione reductase [10] is 4.6 µM; at Trypanothione reductase [11] it was 2.8 µM. Moreover, the outcome in data set [7] was Active. Further, the selectivity ratio was found to be 1.37 in data set [1], 1.18 in [2], 0.45 in data set [3] and 35 in [4]. Besides, the IC50 worked out at 9.1 µM with L6; 7.72 µM in the data set on Leishmania donovani [5]; 6.63 µM in the data set with Leishmania donovani [8]; 20 µM in the data set with Trypanosoma cruzi; 0.26 µM in [9]. Besides, the Activity in data set [6] turned out to be 36%.

For the compound `NCCCNCCCNCCCNCc1ccc(OC2=CC(=O)c3cc4ccccc4cc3C2=O)cc1`, the selectivity ratio in data set [1] was 2.03; in [2] it was 0.53; in [3], 0.29; in data set [4], 20.3. Also, the concentration for half-maximal inhibition (IC50) is 4.87 µM with L6; 9.08 µM with Leishmania donovani [5]; 2.4 µM in the data set with Leishmania donovani [8]; 17.4 µM in the data set with Trypanosoma cruzi; 0.24 µM in data set [9].

Consider `NCCCNCCCCNCc1ccc(OC2=CC(=O)c3cc4ccccc4cc3C2=O)cc1`, for which the outcome in data set [7] was inactive. Also, the selectivity ratio in data set [1] came to 2.01; in data set [2], 0.41; in data set [3] it was 0.16; in data set [4], 27.4. Further, the IC50 is 6.29 µM with L6; 15.4 µM in the data set with Leishmania donovani [5]; 3.13 µM with Leishmania donovani [8]; 39.4 µM in the data set with Trypanosoma cruzi; 0.23 µM in [9]. Also, in data set [6], the Activity is 36%.

As to `NCCCCNCc1ccc(OC2=CC(=O)c3cc4ccccc4cc3C2=O)cc1`, in data set [7], the outcome was inactive. For the same compound, the selectivity ratio is 1.98 in data set [1], 1.56 in data set [2], 0.3 in [3] and 16 in [4]. Also, the IC50 with L6 worked out at 5.6 µM; with Leishmania donovani [5], 3.59 µM; with Leishmania donovani [8], 2.82 µM; with Trypanosoma cruzi, 18.6 µM; in data set [9] it was 0.35 µM. Moreover, the Activity in data set [6] amounted to 36%.

For the compound `O=C(Cn1ccnc1[N+](=O)[O-])NCc1ccccc1` [BENZNIDAZOLE], the IC50 in the data set with L6 was more than 384 µM.

Take `NCCCCNCc1ccc(OC2=CC(=O)c3ccccc3C2=O)cc1`: the selectivity ratio in [1] was determined as 1.63; in [2], 1.27; in [3] it was 0.37; in data set [4], 50.5. For the same compound, the IC50 was 11.1 µM in the data set on L6; 8.72 µM in the data set with Leishmania donovani [5]; 6.81 µM in the data set with Leishmania donovani [8]; 30 µM in the data set with Trypanosoma cruzi; 0.22 µM in data set [9].

`O=C1C=C(Oc2ccccc2)C(=O)c2cc3ccccc3cc21`: the Activity result in the data set on Leishmania donovani [14] is “Dose-dependent effect”; in [6], 51%. For the same compound, the outcome in the data set on Leishmania donovani [16] and with Leishmania donovani [15] was Active. For the same compound, the selectivity ratio in [1] was determined as 2.91; in [2], 0.35; in [3] it was 0.21; in [4], 19.8. Also, the figures for the concentration for half-maximal inhibition (IC50) in the data set with Leishmania donovani [5] and with Trypanosoma cruzi were 2.81 µM and 4.66 µM, respectively.

The values are drawn from ChEMBL document CHEMBL2176892, “Conjugation of quinones with natural polyamines: toward an expanded antitrypanosomatid profile” (J Med Chem, 2012).
